{"source": "the NIST ThermoML archive (doi:10.1016/j.fluid.2007.01.001)", "key": {"[1]": {"settings": "101 kPa, Liquid; for viscosity: Capillary tube (Ostwald / Ubbelohde) method; for speed of sound: Frequency=2 MHz, Linear variable-path acoustic interferometer; for mass density: Pycnometric method"}, "[2]": {"experiment": "xn = mol fraction of the nth substance listed", "settings": "101 kPa, Liquid, x1 = 1; for viscosity: Capillary tube (Ostwald / Ubbelohde) method; for speed of sound: Frequency=2 MHz, Linear variable-path acoustic interferometer; for mass density: Pycnometric method"}}, "note": "± gives the expanded uncertainty stated by the source.", "data": [{"smiles": "CCCCCC(C)O", "note": "(configuration not stated) [2-heptanol]", "values": [{"measurement": "viscosity", "setting": "[1]; 298.15 K", "value": "5.088 ± 0.41", "unit": "mPa·s"}, {"measurement": "speed of sound", "setting": "[1]; 298.15 K", "value": "1314 ± 3", "unit": "m/s"}, {"measurement": "mass density", "setting": "[1]; 298.15 K", "value": "813.74 ± 0.69", "unit": "kg/m3"}, {"measurement": "viscosity", "setting": "[1]; 308.15 K", "value": "3.683 ± 0.3", "unit": "mPa·s"}, {"measurement": "speed of sound", "setting": "[1]; 308.15 K", "value": "1274 ± 3", "unit": "m/s"}, {"measurement": "mass density", "setting": "[1]; 308.15 K", "value": "804.88 ± 0.7", "unit": "kg/m3"}]}, {"smiles": "CCCCC(C)O", "note": "(configuration not stated) [2-hexanol]", "values": [{"measurement": "viscosity", "setting": "[1]; 298.15 K", "value": "4.105 ± 0.33", "unit": "mPa·s"}, {"measurement": "speed of sound", "setting": "[1]; 298.15 K", "value": "1290 ± 3", "unit": "m/s"}, {"measurement": "mass density", "setting": "[1]; 298.15 K", "value": "810.84 ± 0.7", "unit": "kg/m3"}, {"measurement": "viscosity", "setting": "[1]; 308.15 K", "value": "2.92 ± 0.23", "unit": "mPa·s"}, {"measurement": "speed of sound", "setting": "[1]; 308.15 K", "value": "1255 ± 3", "unit": "m/s"}, {"measurement": "mass density", "setting": "[1]; 308.15 K", "value": "801.75 ± 0.71", "unit": "kg/m3"}]}, {"smiles": "CCCCCCC(C)O", "note": "(configuration not stated) [2-octanol]", "values": [{"measurement": "viscosity", "setting": "[1]; 298.15 K", "value": "6.429 ± 0.52", "unit": "mPa·s"}, {"measurement": "speed of sound", "setting": "[1]; 298.15 K", "value": "1328 ± 3", "unit": "m/s"}, {"measurement": "mass density", "setting": "[1]; 298.15 K", "value": "817.08 ± 0.58", "unit": "kg/m3"}, {"measurement": "viscosity", "setting": "[1]; 308.15 K", "value": "4.365 ± 0.35", "unit": "mPa·s"}, {"measurement": "speed of sound", "setting": "[1]; 308.15 K", "value": "1292 ± 3", "unit": "m/s"}, {"measurement": "mass density", "setting": "[1]; 308.15 K", "value": "809.89 ± 0.6", "unit": "kg/m3"}]}, {"smiles": "Cc1ccccc1", "note": "[toluene]", "values": [{"measurement": "viscosity", "setting": "[1]; 298.15 K", "value": "0.554 ± 0.044", "unit": "mPa·s"}, {"measurement": "speed of sound", "setting": "[1]; 298.15 K", "value": "1306 ± 3", "unit": "m/s"}, {"measurement": "mass density", "setting": "[1]; 298.15 K", "value": "862.18 ± 0.73", "unit": "kg/m3"}, {"measurement": "viscosity", "setting": "[1]; 308.15 K", "value": "0.496 ± 0.04", "unit": "mPa·s"}, {"measurement": "speed of sound", "setting": "[1]; 308.15 K", "value": "1270 ± 3", "unit": "m/s"}, {"measurement": "mass density", "setting": "[1]; 308.15 K", "value": "852.79 ± 0.74", "unit": "kg/m3"}]}, {"smiles": "Cc1ccccc1", "note": "[toluene] + CCCCC(C)O", "values": [{"measurement": "viscosity", "setting": "[2]; 298.15 K", "value": "0.554 ± 0.044", "unit": "mPa·s"}, {"measurement": "speed of sound", "setting": "[2]; 298.15 K", "value": "1306 ± 3", "unit": "m/s"}, {"measurement": "mass density", "setting": "[2]; 298.15 K", "value": "862.18 ± 0.73", "unit": "kg/m3"}, {"measurement": "viscosity", "setting": "[2]; 308.15 K", "value": "0.496 ± 0.04", "unit": "mPa·s"}, {"measurement": "speed of sound", "setting": "[2]; 308.15 K", "value": "1270 ± 3", "unit": "m/s"}, {"measurement": "mass density", "setting": "[2]; 308.15 K", "value": "852.79 ± 0.74", "unit": "kg/m3"}]}, {"smiles": "Cc1ccccc1", "note": "[toluene] + CCCCCC(C)O", "values": [{"measurement": "viscosity", "setting": "[2]; 298.15 K", "value": "0.554 ± 0.044", "unit": "mPa·s"}, {"measurement": "speed of sound", "setting": "[2]; 298.15 K", "value": "1306 ± 3", "unit": "m/s"}, {"measurement": "mass density", "setting": "[2]; 298.15 K", "value": "862.18 ± 0.73", "unit": "kg/m3"}, {"measurement": "viscosity", "setting": "[2]; 308.15 K", "value": "0.496 ± 0.04", "unit": "mPa·s"}, {"measurement": "speed of sound", "setting": "[2]; 308.15 K", "value": "1270 ± 3", "unit": "m/s"}, {"measurement": "mass density", "setting": "[2]; 308.15 K", "value": "852.79 ± 0.74", "unit": "kg/m3"}]}, {"smiles": "Cc1ccccc1", "note": "[toluene] + CCCCCCC(C)O", "values": [{"measurement": "viscosity", "setting": "[2]; 298.15 K", "value": "0.554 ± 0.044", "unit": "mPa·s"}, {"measurement": "speed of sound", "setting": "[2]; 298.15 K", "value": "1306 ± 3", "unit": "m/s"}, {"measurement": "mass density", "setting": "[2]; 298.15 K", "value": "862.18 ± 0.73", "unit": "kg/m3"}, {"measurement": "viscosity", "setting": "[2]; 308.15 K", "value": "0.496 ± 0.04", "unit": "mPa·s"}, {"measurement": "speed of sound", "setting": "[2]; 308.15 K", "value": "1270 ± 3", "unit": "m/s"}, {"measurement": "mass density", "setting": "[2]; 308.15 K", "value": "852.79 ± 0.74", "unit": "kg/m3"}]}]}
